Literature values in US8288366B2, “Formulation for hair growth” (priority 2006, dated 2012).

Test system: mice with a mutant hairless gene
Settings: applied topically

In the case of N[C@@H](Cc1cc(I)c(Oc2ccc(O)c(I)c2)c(I)c1)C(=O)O [T3, triiodothyronine], the hair growth is given as “stimulate hair growth”.
